Data taken from the kinase profiling compilation of Christmann-Franck et al. (2016).

Columns and labels:
Experiment in all cases: KINOMEscan competition binding
Conditions in all cases: compound 10.0 µM
STK25 (human) = STK25 (human) (UniProt O00506)
EPHB3 (human) = EPHB3 (human) (UniProt P54753)
MAPK7 (human) = MAPK7 (human) (UniProt Q13164)
MAPKAPK2 (human) = MAPKAPK2 (human) (UniProt P49137)
MYLK (human) = MYLK (human) (UniProt Q15746)
RPS6KA1 KD2 (human) = RPS6KA1 KD2 (human) (UniProt Q15418)
RIOK1 (human) = RIOK1 (human) (UniProt Q9BRS2)
Sequence of RIOK1 (human) (Q9BRS2 whole entry, looked up): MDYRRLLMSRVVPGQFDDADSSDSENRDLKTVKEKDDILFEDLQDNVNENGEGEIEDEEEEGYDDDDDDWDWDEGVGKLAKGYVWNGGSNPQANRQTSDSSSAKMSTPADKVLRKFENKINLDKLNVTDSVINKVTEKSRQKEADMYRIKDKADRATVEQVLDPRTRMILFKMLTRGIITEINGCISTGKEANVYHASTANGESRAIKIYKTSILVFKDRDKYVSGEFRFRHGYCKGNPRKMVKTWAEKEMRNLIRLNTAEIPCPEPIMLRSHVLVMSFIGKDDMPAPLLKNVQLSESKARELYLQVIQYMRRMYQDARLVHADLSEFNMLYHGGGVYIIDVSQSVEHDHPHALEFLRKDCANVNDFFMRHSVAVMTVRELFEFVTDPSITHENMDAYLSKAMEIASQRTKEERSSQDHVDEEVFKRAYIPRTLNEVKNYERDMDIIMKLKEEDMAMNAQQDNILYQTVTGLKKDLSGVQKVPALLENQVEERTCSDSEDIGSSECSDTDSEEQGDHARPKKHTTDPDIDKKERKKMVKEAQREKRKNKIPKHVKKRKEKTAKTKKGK

GRK4 (human) = GRK4 (human) (UniProt P32298)
MAP3K13 (human) = MAP3K13 (human) (UniProt O43283)
IKBKB (human) = IKBKB (human) (UniProt O14920)
NLK (human) = NLK (human) (UniProt Q9UBE8)
Sequence of NLK (human) (Q9UBE8 whole entry, looked up): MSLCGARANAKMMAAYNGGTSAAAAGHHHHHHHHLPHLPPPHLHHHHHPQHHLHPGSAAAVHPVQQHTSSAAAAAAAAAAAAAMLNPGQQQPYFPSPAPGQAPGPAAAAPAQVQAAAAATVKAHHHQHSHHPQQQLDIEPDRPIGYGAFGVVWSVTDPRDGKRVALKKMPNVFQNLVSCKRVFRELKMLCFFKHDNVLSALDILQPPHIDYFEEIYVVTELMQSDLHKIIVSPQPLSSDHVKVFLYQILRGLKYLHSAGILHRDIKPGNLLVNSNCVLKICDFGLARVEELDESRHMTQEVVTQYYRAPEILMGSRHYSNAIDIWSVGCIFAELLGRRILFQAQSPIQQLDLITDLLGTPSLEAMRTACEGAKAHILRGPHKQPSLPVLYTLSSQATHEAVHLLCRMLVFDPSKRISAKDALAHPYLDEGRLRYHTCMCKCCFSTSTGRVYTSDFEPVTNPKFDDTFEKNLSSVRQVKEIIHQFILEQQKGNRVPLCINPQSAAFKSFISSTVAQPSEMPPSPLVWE

AKT1 (human) = AKT1 (human) (UniProt P31749)
Sequence of AKT1 (human) (P31749 whole entry, looked up): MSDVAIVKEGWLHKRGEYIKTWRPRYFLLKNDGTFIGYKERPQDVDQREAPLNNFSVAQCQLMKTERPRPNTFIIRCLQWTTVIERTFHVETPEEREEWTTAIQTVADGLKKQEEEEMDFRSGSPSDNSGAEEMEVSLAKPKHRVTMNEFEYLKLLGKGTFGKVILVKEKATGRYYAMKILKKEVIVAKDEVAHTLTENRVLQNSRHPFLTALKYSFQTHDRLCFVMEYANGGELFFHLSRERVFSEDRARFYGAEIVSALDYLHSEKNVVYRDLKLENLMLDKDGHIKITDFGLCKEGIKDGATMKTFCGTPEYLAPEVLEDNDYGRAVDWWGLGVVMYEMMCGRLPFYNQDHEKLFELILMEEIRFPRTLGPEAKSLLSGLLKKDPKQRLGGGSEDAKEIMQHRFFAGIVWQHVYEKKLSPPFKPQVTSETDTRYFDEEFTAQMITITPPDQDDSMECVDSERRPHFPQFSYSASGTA

CDK15 (human) = CDK15 (human) (UniProt Q96Q40)
Sequence of CDK15 (human) (Q96Q40 whole entry, looked up): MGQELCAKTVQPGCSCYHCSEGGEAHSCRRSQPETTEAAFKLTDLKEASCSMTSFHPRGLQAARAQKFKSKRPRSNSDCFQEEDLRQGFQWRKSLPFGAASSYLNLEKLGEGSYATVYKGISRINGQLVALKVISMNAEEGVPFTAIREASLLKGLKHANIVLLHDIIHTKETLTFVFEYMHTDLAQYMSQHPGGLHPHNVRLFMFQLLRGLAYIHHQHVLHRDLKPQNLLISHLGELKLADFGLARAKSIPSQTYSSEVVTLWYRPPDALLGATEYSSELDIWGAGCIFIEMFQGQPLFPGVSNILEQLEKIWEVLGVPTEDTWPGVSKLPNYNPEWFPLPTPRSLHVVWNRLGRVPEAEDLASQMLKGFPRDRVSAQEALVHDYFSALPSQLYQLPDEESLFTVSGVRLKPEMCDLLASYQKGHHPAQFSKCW

MARK4 (human) = MARK4 (human) (UniProt Q96L34)
CDC2L2 (human) = CDC2L2 (human) (UniProt Q9UQ88)
NTRK3 (human) = NTRK3 (human) (UniProt Q16288)
MAP4K5 (human) = MAP4K5 (human) (UniProt Q9Y4K4)
MAP3K15 (human) = MAP3K15 (human) (UniProt Q6ZN16)
CDKL5 (human) = CDKL5 (human) (UniProt O76039)
Sequence of CDKL5 (human) (O76039 whole entry, looked up): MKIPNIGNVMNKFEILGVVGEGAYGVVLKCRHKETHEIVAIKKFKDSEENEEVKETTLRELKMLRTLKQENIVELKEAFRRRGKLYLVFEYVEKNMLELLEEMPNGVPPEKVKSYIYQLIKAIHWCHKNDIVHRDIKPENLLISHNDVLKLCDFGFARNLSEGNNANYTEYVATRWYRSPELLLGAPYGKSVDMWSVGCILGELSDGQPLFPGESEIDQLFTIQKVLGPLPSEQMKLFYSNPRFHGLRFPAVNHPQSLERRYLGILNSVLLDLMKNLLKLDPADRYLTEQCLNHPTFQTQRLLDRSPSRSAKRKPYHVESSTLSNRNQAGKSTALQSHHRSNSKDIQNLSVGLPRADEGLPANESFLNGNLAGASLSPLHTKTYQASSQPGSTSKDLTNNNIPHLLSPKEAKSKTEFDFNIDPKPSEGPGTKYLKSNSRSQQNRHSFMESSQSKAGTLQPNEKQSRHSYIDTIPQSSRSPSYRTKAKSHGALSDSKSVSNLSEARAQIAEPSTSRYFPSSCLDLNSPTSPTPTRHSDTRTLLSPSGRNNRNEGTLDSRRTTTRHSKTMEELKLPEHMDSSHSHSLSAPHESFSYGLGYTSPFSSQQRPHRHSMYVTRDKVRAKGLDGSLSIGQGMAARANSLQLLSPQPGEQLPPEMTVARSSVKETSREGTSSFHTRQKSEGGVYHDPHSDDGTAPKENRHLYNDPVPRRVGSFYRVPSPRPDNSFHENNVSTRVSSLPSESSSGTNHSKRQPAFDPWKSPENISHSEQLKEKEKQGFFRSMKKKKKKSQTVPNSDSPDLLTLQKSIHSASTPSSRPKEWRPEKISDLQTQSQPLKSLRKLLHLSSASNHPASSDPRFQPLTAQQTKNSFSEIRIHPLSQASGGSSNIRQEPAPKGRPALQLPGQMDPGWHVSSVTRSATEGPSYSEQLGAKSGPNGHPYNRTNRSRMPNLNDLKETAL

MAP3K2 (human) = MAP3K2 (human) (UniProt Q9Y2U5)
CSNK1A1L (human) = CSNK1A1L (human) (UniProt Q8N752)
PLK2 (human) = PLK2 (human) (UniProt Q9NYY3)
PIP5K1C (human) = PIP5K1C (human) (UniProt O60331)
CLK2 (human) = CLK2 (human) (UniProt P49760)
PIK3CD (human) = PIK3CD (human) (UniProt O00329)
FGFR3 (human) = FGFR3 (human) (UniProt P22607)
Sequence of FGFR3 (human) (P22607 whole entry, looked up): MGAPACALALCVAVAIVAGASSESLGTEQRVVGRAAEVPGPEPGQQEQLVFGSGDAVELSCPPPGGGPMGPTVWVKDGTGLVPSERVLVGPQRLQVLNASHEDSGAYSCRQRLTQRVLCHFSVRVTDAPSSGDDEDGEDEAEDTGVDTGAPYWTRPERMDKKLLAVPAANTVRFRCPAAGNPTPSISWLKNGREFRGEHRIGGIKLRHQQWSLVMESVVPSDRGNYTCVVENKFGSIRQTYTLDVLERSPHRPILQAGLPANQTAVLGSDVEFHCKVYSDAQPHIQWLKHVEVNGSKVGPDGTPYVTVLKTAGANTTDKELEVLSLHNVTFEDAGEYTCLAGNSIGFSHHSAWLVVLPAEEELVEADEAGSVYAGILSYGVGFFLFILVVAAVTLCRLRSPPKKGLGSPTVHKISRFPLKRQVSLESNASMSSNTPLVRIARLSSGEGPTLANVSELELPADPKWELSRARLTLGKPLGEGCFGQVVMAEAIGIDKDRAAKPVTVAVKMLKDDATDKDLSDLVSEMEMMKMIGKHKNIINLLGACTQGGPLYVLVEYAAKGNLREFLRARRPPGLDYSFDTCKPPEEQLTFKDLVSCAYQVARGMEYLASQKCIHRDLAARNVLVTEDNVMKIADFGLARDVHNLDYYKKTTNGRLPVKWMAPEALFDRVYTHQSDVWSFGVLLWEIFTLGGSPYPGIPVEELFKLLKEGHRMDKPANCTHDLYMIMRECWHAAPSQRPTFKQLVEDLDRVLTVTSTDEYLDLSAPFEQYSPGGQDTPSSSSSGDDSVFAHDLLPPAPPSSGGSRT

ERBB3 (human) = ERBB3 (human) (UniProt P21860)
CDC42BPG (human) = CDC42BPG (human) (UniProt Q6DT37)
FLT1 (human) = FLT1 (human) (UniProt P17948)
ACVR1B (human) = ACVR1B (human) (UniProt P36896)
EPHA4 (human) = EPHA4 (human) (UniProt P54764)
DMPK (human) = DMPK (human) (UniProt Q09013)
Sequence of DMPK (human) (Q09013 whole entry, looked up): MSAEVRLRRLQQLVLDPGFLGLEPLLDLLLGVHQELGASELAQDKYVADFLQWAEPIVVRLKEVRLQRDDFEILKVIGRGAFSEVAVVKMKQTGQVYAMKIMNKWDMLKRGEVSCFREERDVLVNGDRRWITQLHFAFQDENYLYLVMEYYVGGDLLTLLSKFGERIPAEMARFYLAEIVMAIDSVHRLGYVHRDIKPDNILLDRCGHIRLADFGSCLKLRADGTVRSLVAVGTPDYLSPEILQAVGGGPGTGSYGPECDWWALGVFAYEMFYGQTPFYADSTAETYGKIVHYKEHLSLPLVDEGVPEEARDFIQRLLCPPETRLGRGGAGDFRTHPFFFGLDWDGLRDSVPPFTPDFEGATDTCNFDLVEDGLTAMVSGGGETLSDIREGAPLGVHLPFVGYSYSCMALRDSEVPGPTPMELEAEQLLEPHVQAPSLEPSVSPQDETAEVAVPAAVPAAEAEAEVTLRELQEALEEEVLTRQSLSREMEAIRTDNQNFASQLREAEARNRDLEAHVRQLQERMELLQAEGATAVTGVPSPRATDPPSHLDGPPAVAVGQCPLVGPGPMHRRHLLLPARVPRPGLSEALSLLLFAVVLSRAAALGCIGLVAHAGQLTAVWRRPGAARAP

SLK (human) = SLK (human) (UniProt Q9H2G2)
TAOK1 (human) = TAOK1 (human) (UniProt Q7L7X3)
EPHA3 (human) = EPHA3 (human) (UniProt P29320)
CHEK1 (human) = CHEK1 (human) (UniProt O14757)
STK35 (human) = STK35 (human) (UniProt Q8TDR2)
SYK (human) = SYK (human) (UniProt P43405)
[1] = test system: ABL1 (human), P00519 [Y253F]
[2] = test system: RET (human), P07949 [M918T]

Sequence of MAPKAPK2 (human) (P49137 whole entry, looked up): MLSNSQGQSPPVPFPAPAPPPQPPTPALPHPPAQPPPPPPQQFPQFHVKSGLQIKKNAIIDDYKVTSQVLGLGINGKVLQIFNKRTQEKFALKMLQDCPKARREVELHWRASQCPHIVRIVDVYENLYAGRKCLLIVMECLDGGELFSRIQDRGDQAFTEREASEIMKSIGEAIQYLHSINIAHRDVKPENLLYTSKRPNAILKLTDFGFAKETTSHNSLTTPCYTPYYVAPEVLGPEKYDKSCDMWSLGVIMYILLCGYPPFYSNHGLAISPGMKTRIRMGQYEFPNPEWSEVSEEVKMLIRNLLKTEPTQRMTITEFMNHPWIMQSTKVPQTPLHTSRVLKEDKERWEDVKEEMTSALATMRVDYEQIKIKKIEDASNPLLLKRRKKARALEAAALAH

COc1ccc(N(C(=O)Oc2c(C)cccc2C)c2ccnc(Nc3ccc(N4CCN(C)CC4)cc3)n2)c(OC)c1
kinase still bound, per cent of control (STK25 (human)): 61% | kinase still bound, per cent of control (EPHB3 (human)): 0% | kinase still bound, per cent of control (MAPK7 (human)): 39% | kinase still bound, per cent of control (MAPKAPK2 (human)): 100% | kinase still bound, per cent of control (MYLK (human)): 100% | kinase still bound, per cent of control (RPS6KA1 KD2 (human)): 65% | kinase still bound, per cent of control (RIOK1 (human)): 5.8% | kinase still bound, per cent of control (GRK4 (human)): 7.9% | kinase still bound, per cent of control (MAP3K13 (human)): 70% | kinase still bound, per cent of control (IKBKB (human)): 93% | kinase still bound, per cent of control (NLK (human)): 3.9% | kinase still bound, per cent of control (AKT1 (human)): 100% | kinase still bound, per cent of control (CDK15 (human)): 94% | kinase still bound, per cent of control (MARK4 (human)): 49% | kinase still bound, per cent of control (CDC2L2 (human)): 42% | kinase still bound, per cent of control (NTRK3 (human)): 100% | kinase still bound, per cent of control (MAP4K5 (human)): 0.7% | kinase still bound, per cent of control (MAP3K15 (human)): 83% | kinase still bound, per cent of control (CDKL5 (human)): 100% | kinase still bound, per cent of control (MAP3K2 (human)): 2.2% | kinase still bound, per cent of control (CSNK1A1L (human)): 100% | kinase still bound, per cent of control (PLK2 (human)): 100% | kinase still bound, per cent of control (PIP5K1C (human)): 96% | kinase still bound, per cent of control (CLK2 (human)): 78% | kinase still bound, per cent of control (PIK3CD (human)): 92% | kinase still bound, per cent of control (FGFR3 (human)): 1% | kinase still bound, per cent of control (ERBB3 (human)): 0% | kinase still bound, per cent of control (CDC42BPG (human)): 0.45% | kinase still bound, per cent of control (FLT1 (human)): 11% | kinase still bound, per cent of control (ACVR1B (human)): 1% | kinase still bound, per cent of control (EPHA4 (human)): 0% | kinase still bound, per cent of control (DMPK (human)): 0.05% | kinase still bound, per cent of control (SLK (human)): 0.1% | kinase still bound, per cent of control (TAOK1 (human)): 11% | kinase still bound, per cent of control (EPHA3 (human)): 9.4% | kinase still bound, per cent of control (CHEK1 (human)): 100% | kinase still bound, per cent of control (STK35 (human)): 24% | kinase still bound, per cent of control (SYK (human)): 1.4% | kinase still bound, per cent of control [1]: 0.1% | kinase still bound, per cent of control [2]: 0.1%
